Source: US20150368248A1, “2-SUBSTITUTED-6-BIARYLMETHYLAMINO-9-CYCLOPENTYL-9H-PURINE DERIVATIVES, USE THEREOF AS MEDICAMENTS, AND PHARMACEUTICAL COMPOSITIONS” (UNIVERZITA PALACKEHO V OLOMOUCI, priority 2013, published 2015)

Key:
HepG2 = experiment: MTT cytotoxicity assay (Example 30); type: cell-based; conditions: Homo sapiens, HepG2, 72 h; MTT, three days after drug addition; read-out: Inhibitory concentration IC50, HepG2
Method in brief: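 HepG2 cells in EMEM with 10% FBS, seeded at 10000 per well, dosed next day in triplicate at various concentrations. Three days later MTT added for 4 h; formazan dissolved in DMSO and absorbance read at 570 nm.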

[1] = system: caspase-3/7 activity in Hep3B cell line; experiment: One-step cellular caspase-3/7 activity assay; type: cell-based, human; conditions: 24 hours, 0 nM = 1.00
Method in brief: (§1)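 Hep3B or PLC/PRF/5 cells, plated overnight, were exposed to compounds for 24 h. Lysis buffer containing 150 μM Ac-DEVD-AMC substrate was added, and plates were incubated at 37° C. Caspase-3/7 activity was read as AMC fluorescence (ex 346/em 442 nm) after 6 h.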

[2] = system: caspase-3/7 activity in PLC/PRF/5 cell line; experiment: One-step cellular caspase-3/7 activity assay; type: cell-based, human; conditions: 24 hours incubation, relative to 0 nM = 1.00
Method in brief: as §1

CDK1/cyclin B = target: T1, CDK1/cyclin B (Homo sapiens, UniProt P06493); experiment: Kinase inhibition assay, recombinant kinase, [γ-33P]ATP; type: biochemical; conditions: read-out: Kinase inhibition IC50, CDK1
T1 construct: made in house; host or cells: Sf9 insect cells (baculovirus)
Experimental: CDK2/Cyclin E kinase was produced in Sf9 insect cells via baculoviral infection and purified on a NiNTA column (Qiagen). CDK5/p35, CDK7Cyclin H/MAT1 and CDK9/Cyclin T1 was purchased from ProQinase GmbH. […] The reactions were stopped by adding 5 μL of 3% aq H3PO4. Aliquots were spotted onto P-81 phosphocellulose (Whatman), washed 3× with 0.5% aq H3PO4 and finally air-dried.
CDK1/cyclin B and CDK2/cyclin E kinases were produced in Sf9 insect cells via baculoviral infection, while CDK5/p35, CDK7/cyclin H/MAT1, and CDK9/cyclin T1 were purchased from ProQinase (Freiburg, Germany) and assayed as described previously (35). The kinase reactions were assayed with 1 mg/ml histone H1 (for CDK2 and CDK5) or (YSPTSPS)2KK peptide (for CDK7 and CDK9) in the presence of 15/0.15/1.5/1.5 […] ATP (for CDK2/CDK5/CDK7CDK9), […] [γ-^33P]ATP and of the test compound in a final volume of […]. The reaction buffer contained 60 mM HEPES-NaOH, pH 7.5, 3 mM MgCl2, 3 mM MnCl2, 3 mM Na-orthovanadate, 1.2 mM DTT, 2.5 mg/50 ml PEG20.000. The reactions were stopped by adding […] of 3% H3PO4. Aliquots were spotted onto P-81 phosphocellulose (Whatman, GE Healthcare Biosciences, Pittsburgh, USA), washed 3 times with 0.5% H3PO4 and finally air-dried. Kinase inhibition was quantified using a FLA-7000 digital image analyzer (Fujifilm, Tokyo, Japan).

[3] = system: p53-regulated transcription in Arn8 cells; experiment: p53-dependent transcriptional activity, β-galactosidase reporter; type: cell-based; conditions: 24 h incubation
Method in brief: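 Arn8 melanoma cells stably carrying the p53-responsive pRGCAfoslacZ reporter, exposed to compounds for 24 h. Cells permeabilised with 0.3% Triton X-100 for 15 min, then given 80 μM 4-methylumbelliferyl-β-D-galactopyranoside. β-Galactosidase product fluorescence read after 1 h at 355/460 nm.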

T1 sequence (P06493 whole entry, species assumed): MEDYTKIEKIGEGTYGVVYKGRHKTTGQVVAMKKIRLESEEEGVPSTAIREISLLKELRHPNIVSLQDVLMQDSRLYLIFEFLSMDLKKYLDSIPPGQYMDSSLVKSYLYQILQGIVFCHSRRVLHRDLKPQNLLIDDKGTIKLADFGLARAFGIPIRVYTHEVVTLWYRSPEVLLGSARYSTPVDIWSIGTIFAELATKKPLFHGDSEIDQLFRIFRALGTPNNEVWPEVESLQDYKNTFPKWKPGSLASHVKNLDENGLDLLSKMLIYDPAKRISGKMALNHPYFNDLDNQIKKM
T1 sequence (P14635 whole entry partner, species assumed): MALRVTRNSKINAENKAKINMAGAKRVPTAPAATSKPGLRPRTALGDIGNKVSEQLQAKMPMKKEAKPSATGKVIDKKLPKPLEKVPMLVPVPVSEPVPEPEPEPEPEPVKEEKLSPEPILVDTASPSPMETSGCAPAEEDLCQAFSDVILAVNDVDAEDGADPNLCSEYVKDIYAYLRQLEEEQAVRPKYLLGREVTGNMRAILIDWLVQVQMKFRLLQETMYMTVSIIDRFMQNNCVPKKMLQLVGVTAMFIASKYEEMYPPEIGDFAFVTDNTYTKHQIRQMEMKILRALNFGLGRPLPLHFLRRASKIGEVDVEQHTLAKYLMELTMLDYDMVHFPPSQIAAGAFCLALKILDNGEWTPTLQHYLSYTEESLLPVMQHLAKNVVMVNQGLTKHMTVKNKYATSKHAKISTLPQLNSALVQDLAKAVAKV

| IC50 (CDK1/cyclin B) [nM] | melting point [°C] | Structure (SMILES) | IC50 (HepG2) [nM] | Relative caspase-3/7 activity in Hep3B cell line ([1]; 200 nM) | Relative caspase-3/7 activity in Hep3B cell line ([1]; 400 nM) | Relative caspase-3/7 activity in Hep3B cell line ([1]; 800 nM) | Relative caspase-3/7 activity in Hep3B cell line ([1]; 1600 nM) | Relative caspase-3/7 activity in PLC/PRF/5 cell line ([2]; compound concentration 40 nM) | Relative caspase-3/7 activity in PLC/PRF/5 cell line ([2]; compound concentration 80 nM) | Relative caspase-3/7 activity in PLC/PRF/5 cell line ([2]; compound concentration 160 nM) | Relative caspase-3/7 activity in PLC/PRF/5 cell line ([2]; compound concentration 320 nM) | Relative caspase-3/7 activity in PLC/PRF/5 cell line ([2]; compound concentration 640 nM) | Relative caspase-3/7 activity in PLC/PRF/5 cell line ([2]; compound concentration 1280 nM) | Concentration of maximum activation [3] [nM] | Relative caspase-3/7 activity in Hep3B cell line ([1]; 100 nM) |
| --- | --- | --- | --- | --- | --- | --- | --- | --- | --- | --- | --- | --- | --- | --- | --- |
| 152 | 168 to 170 | Nc1ccccc1-c1ccc(CNc2nc(NC3CCC(N)CC3)nc3c2ncn3C2CCCC2)cc1 (stereo not shown) [BP32, N^2-(4-amino-cyclohexyl)-9-cyclopentyl-N^6-(2′-amino-biphenyl-4-ylmethyl)-9H-purine-2,6-diamine] | > 1000 | 0.70 | 1.15 | 2.48 | 7.53 | 0.62 | 1.00 | 0.69 | 2.01 | >5.00 | >5.00 | 895 | – |
| 169 | 139 to 140 | NC1CCC(Nc2nc(NCc3ccc(-c4ccsc4)nc3)c3ncn(C4CCCC4)c3n2)CC1 (stereo not shown) [BP35, N^2-(4-amino-cyclohexyl)-9-cyclopentyl-N^6-(6-thiophen-3-yl-pyridin-3-ylmethyl)-9H-purine-2,6-diamine] | 278 | 1.01 | 5.59 | 6.07 | 9.10 | 1.10 | 2.37 | 2.97 | >5.00 | >5.00 | >5.00 | 230 | – |
| 66 | 165 to 167 | NC1CCC(Nc2nc(NCc3ccc(-c4ccoc4)nc3)c3ncn(C4CCCC4)c3n2)CC1 (stereo not shown) [BP36, N^2-(4-amino-cyclohexyl)-9-cyclopentyl-N^6-(6-furan-3-yl-pyridin-3-ylmethyl)-9H-purine-2,6-diamine] | 131 | 6.19 | 6.55 | 9.80 | 9.75 | 2.34 | >5.00 | >5.00 | >5.00 | >5.00 | >5.00 | 125 | 2.67 |
